# Values joined by “and” are separate entries in the source; they are usually repeats but may differ in a detail not shown here. Identical values can stand only once. “Also recorded” adds a separate entry of the source.
# Experiments:
# [1] = test system: MCF-7 K303R ERα-overexpressing cells; assay: Anchorage-independent soft agar growth assay; format: cell-based, human; conditions: for reduction in colonies: Tam 100 nM
# [2] = test system: pAkt in K303R Arom 1 and 2 cells; assay: Immunoblot of phosphorylated Akt; format: cell-based, human; conditions: for basal Akt phosphorylation: LY 10 μmol/L, PI-103 1 μmol/L, Akti1/2 1 μmol/L, 30 min
# [3] = test system: MCF-7 Arom 1 cells; assay: Anchorage-independent soft agar growth assay; format: cell-based, human; conditions: for colony growth: ICI 182,780 1 μM
# [4] = test system: K303R Arom 1 and Arom 2 cells; assay: Anchorage-independent soft agar growth assay; format: cell-based, human; conditions: for AD-induced colony formation: AD 10 nmol/L + Ana 1 μmol/L, 14 days; for colony growth: ICI 182,780 1 μM
# [5] = test system: PARP cleavage in MCF-7 Arom 1 cells; assay: Immunoblot of PARP proteolysis; format: cell-based, human; conditions: AD 10 nmol/L + Ana 1 μmol/L, 24 h
# [6] = test system: PARP cleavage in K303R Arom 1 cells; assay: Immunoblot of PARP proteolysis; format: cell-based, human; conditions: AD 10 nmol/L + Ana 1 μmol/L, 24 h
# [7] = test system: pAkt in MCF-7 Arom 1 cells; assay: Immunoblot of phosphorylated Akt; format: cell-based, human
# [8] = test system: MCF-7 Arom 1 cells; assay: ELISA cell death detection assay; format: cell-based, human
# [9] = test system: K303R Arom 1 cells; assay: ELISA cell death detection assay; format: cell-based, human
# [10] = test system: CHO K303R P cells; assay: Soft agar assay in stable pools; format: cell-based, Chinese hamster; conditions: AD 10 nmol/L + Ana 1 μmol/L
# [11] = test system: MCF-7 Arom 1 cells; assay: MTT growth assay; format: cell-based, human; conditions: AD 10 nM + Ana, 9 days, WT ERα cells
# [12] = test system: K303R Arom 1 cells; assay: MTT growth assay; format: cell-based, human; conditions: AD 10 nM + Ana, 9 days, K303R mutant cells
# [13] = target: T1, aromatase (Homo sapiens, UniProt P11511); assay: Aromatase activity assay (3H-water release); format: biochemical; conditions: both cells (MCF-7 and MCF-7-K303R aromatase transfectants)
# T1 construct: Full-length human aromatase cDNA was amplified from the pCMV6-Arom plasmid; expressed in transfected cells; host or cells: MCF-7 parental and YFP-K303R ERα MCF-7 clones, stably transfected with pZeo-Arom
# T1 sequence (P11511 1-503): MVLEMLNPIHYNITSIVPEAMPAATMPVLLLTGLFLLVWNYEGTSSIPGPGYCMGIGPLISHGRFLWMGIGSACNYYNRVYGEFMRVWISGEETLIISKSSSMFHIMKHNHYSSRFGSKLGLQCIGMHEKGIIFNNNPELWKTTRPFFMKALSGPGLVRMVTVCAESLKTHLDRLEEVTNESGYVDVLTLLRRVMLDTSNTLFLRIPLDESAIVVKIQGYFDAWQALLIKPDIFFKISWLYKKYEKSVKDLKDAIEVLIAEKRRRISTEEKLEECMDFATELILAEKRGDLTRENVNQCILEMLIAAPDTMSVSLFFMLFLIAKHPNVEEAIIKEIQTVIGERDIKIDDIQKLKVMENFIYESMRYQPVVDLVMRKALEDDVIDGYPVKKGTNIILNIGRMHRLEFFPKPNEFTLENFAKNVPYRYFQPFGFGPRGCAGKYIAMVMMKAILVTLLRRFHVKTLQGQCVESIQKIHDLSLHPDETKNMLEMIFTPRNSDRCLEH
# [14] = test system: K303R ERα-Arom pools (MCF-7); assay: Soft agar assay in stable pools; format: cell-based, human; conditions: AD 10 nmol/L + Ana 1 μmol/L
# [15] = test system: K303R ERα ERE-luciferase reporter; assay: ERα transactivation assay (ERE-luciferase) in CHO cells; format: cell-based, Chinese hamster; conditions: LY 10 μmol/L or ICI 1 μmol/L
# [16] = test system: MCF-7 WT ERα-expressing cells; assay: MTT growth assay with growth factors; format: cell-based, human; conditions: Tam alone
# [17] = test system: MCF-7 K303R ERα-expressing cells; assay: MTT growth assay with growth factors; format: cell-based, human
# [18] = test system: AP-1 activity in MCF-7 K303R cells; assay: AP-1 luciferase reporter assay; format: cell-based, human
# [19] = test system: MCF-7 WT cells; assay: Anchorage-independent soft agar growth assay; format: cell-based, human; conditions: Tam 100 nM, 14 days
# [20] = test system: phosphorylated S305 ERα, HER2, Akt, MAPK in MCF-7 K303R cells; assay: Immunoblot after S305 blocking peptide delivery and heregulin; format: cell-based, human; conditions: peptide 4 μg/well 4 h, heregulin 10 min
# [21] = test system: phosphorylated HER2, Akt, MAPK in MCF-7 WT cells; assay: as above; format: cell-based, human; conditions: peptide 4 μg/well 4 h, heregulin 10 min
# [22] = AD 10 nmol/L + Ana 1 μmol/L versus AD
compound,measurement,setting,value
17β-Estradiol [E2],soft agar growth at lowest E2 concentration,"[1]; E2 10^−12, 14 days, p=0.005",significantly enhance
"O=c1[nH]c2ccccc2n1C1CCN(Cc2ccc(-c3nc4cc5nc[nH]c5cc4nc3-c3ccccc3)cc2)CC1 [Akti1/2, Akt inhibitor VIII isozyme-selective]",basal Akt phosphorylation,[2],effectively blocked
same,"inhibition of basal, AD-stimulated and Ana-stimulated growth",[3]; Akti1/2 1 μmol/L,~30%
same,inhibition of growth,[4]; Akti1/2 1 μmol/L,> 90%
"CC(C)(C#N)c1cc(Cn2cncn2)cc(C(C)(C)C#N)c1 [Ana, anastrozole]",PARP proteolysis compared with AD treatment,[5],increased proteolysis
same,PARP cleavage,[6],unchanged
same,constitutive pAkt levels,"[2]; AD 10 nM + Ana 1 μM, 1 h",not affected; also recorded: unaffected
same,AD-induced pAkt levels,"[7]; AD 10 nM + Ana 1 μM, 1 h",reduced
same,cell apoptosis,[8]; [22],significant increase
same,apoptotic response,[9]; [22],no change
same,AD-stimulated growth,[10],did not reverse
same,decrease of AD-stimulated growth,[11],47% and ~40%
same,decrease of AD-stimulated growth,[11]; listed as AN,40%
same,effect on AD-stimulated growth,[12],had no effect
same,AD-stimulated colony growth,"[3]; AD 10 nmol/L + Ana 1 μmol/L, 14 days",completely abrogated
same,AD-induced colony formation,[4],did not inhibit; also recorded: unable to inhibit
same,AD-induced colony formation,[4]; listed as AN,unable to inhibit
same,reduction of aromatase activity,[13],95%
same,AD-stimulated growth,[14],unable to reduce; also recorded: further stimulated
"C[C@]12CC[C@@H]3c4ccc(O)cc4C[C@@H](CCCCCCCCC[S+]([O-])CCCC(F)(F)C(F)(F)F)[C@H]3[C@@H]1CC[C@@H]2O (stereo partly shown) [ICI 182,780, fulvestrant]",pAkt with short-term treatment,"[2]; ICI 1 μmol/L, 1-30 min",no changes
same,pAkt levels,[2]; ICI 1-48 h,decrease
same,basal pAkt,"[7]; ICI182,780 1-48 h",not basal pAkt
same,colony growth,[3],significantly suppressed
same,colony growth,"[3]; listed as ICI182,780",suppressed
same,colony growth,[4],significantly suppressed
same,colony growth,"[4]; listed as ICI182,780",suppressed
same,ERE activity,[15],inhibited
O=c1cc(N2CCOCC2)oc2c(-c3ccccc3)cccc12 [LY294002],apoptosis induction,"[8]; LY 10 μmol/L, 72 h",1.7 fold
same,increase in the apoptotic rate compared with AD,"[9]; LY 10 μmol/L, 72 h",3.6 fold
COc1cccc(-c2cc(=O)c3ccccc3o2)c1N [PD98059],antiproliferative effects on basal growth,[4]; PD98059 10 μM,not observed
same,reversal of the AI^R phenotype,[4]; PD98059 10 μM,did not reverse
same,reversal of the AI^R phenotype,"[4]; PD98059 10 μM, listed as PD",unable to reverse
Oc1cccc(-c2nc(N3CCOCC3)c3oc4ncccc4c3n2)c1 [PI-103],basal Akt phosphorylation,[2],effectively blocked
"CC/C(=C(\c1ccccc1)c1ccc(OCCN(C)C)cc1)c1ccccc1 [Tam, tamoxifen]",control growth,[16],inhibited
same,growth,"[17]; Tam alone, MTT",enhanced
same,growth when stimulated with growth factors,"[17]; Tam with heregulin, EGF or IGF-1, MTT",super-agonist
same,heregulin-induced anchorage-independent growth,"[1]; Tam, 14 days",unable to block; also recorded: failed to inhibit
same,reduction in colonies,"[1]; estrogen (E2 1 nM)-stimulated, 14 days",54%
same,reduction in colonies,"[1]; heregulin (2 ng/ml)-stimulated, 14 days",21%
same,growth factor-induced AP-1 activity,[18]; presence of Tam,unable to reverse
same,reduction in colonies,[19]; estrogen (E2 1 nM)-stimulated,78%
same,reduction in colonies,[19]; heregulin (2 ng/ml)-stimulated,96%
IKRSKKNSLALSC (blocking sequence) [S305 blocking peptide],phosphorylation of the mutant receptor at S305,[20],abrogated
same,"heregulin-induced phosphorylation of downstream signaling molecules (HER2, Akt, MAPK)",[20]; more pronounced than in WT,abrogated; also recorded: inhibited
same,"heregulin-induced phosphorylation of downstream signaling molecules (HER2, Akt, MAPK)",[21],abrogated; also recorded: inhibited
heregulin,AP-1 activity,[18]; only in mutant-expressing cells,induced high AP-1 activity

# Source: patent US20100120039A1, “METHODS AND COMPOSITIONS IN BREAST CANCER THERAPY RESISTANCE” (priority 2008, published 2010)
